We go through eleven molecules from ChEMBL document CHEMBL1201862, “PubChem BioAssay data set” (2004).

Test systems include 786-0; BT-549; COLO 205; DU-145; HL-60; Hs-578T; K562; Malme-3M; NCI-H226; NCI-H23; NCI-H460; NCI/ADR-RES; SK-OV-3; SNB-19; SNB-75; T47D; TK-10; UO-31; CCRF-CEM; EKVX.
Common to all, as to assay: growth of human tumour cells (NCI), 48 h

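Each compound was tested at five concentrations against cells in 96-well plates for 48 hours. GI50 is the concentration that inhibits growth by half.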 Active and inactive are the calls of the source. Cut-off read from the data, not from the text of the source: active = GI50 up to about 1.1 µM and inactive = higher.

As for `Clc1ccc(-c2cn3c(nc4ccccc43)c(/C=C/c3ccco3)n2)cc1`, the GI50 with 786-0 is 30.3 µM (inactive); in the assay on BT-549, 51.4 µM (inactive); with COLO 205, 41.7 µM (inactive); with DU-145 it was 75.7 µM (inactive); with HL-60 it was 12.5 µM (inactive); with Hs-578T, 14.8 µM (inactive). Also, the GI50 was 29.8 µM (inactive) in the assay on K562; 70.3 µM (inactive) in the assay with Malme-3M; > 100 µM (inactive) in the assay on NCI-H226; 31.4 µM (inactive) in the assay on NCI-H23; 23.5 µM (inactive) in the assay on NCI-H460; 42.1 µM (inactive) with NCI/ADR-RES. For the same molecule, the GI50 was 90.2 µM (inactive) in the assay on SK-OV-3; 41.4 µM (inactive) in the assay on SNB-19; 18.4 µM (inactive) with SNB-75; 22.9 µM (inactive) in the assay on T47D; 24 µM (inactive) in the assay with TK-10; 48.2 µM (inactive) with UO-31.
As for `C/C(=C\COc1cc(O)c2c(c1)C(=O)c1cc(C)cc(O)c1C2=O)CCC1OC1(C)C` (stereo not given), the GI50 with 786-0 was 58.2 µM (inactive); with BT-549, 26.7 µM (inactive); in the assay with CCRF-CEM, 11.2 µM (inactive); in the assay on COLO 205, > 100 µM (inactive); in the assay with DU-145, > 100 µM (inactive); with EKVX it was > 100 µM (inactive). The GI50 with HL-60 was > 10 µM (inactive); in the assay with Hs-578T, 24.1 µM (inactive); in the assay with K562, 83.8 µM (inactive); in the assay with Malme-3M it was > 100 µM (inactive); with NCI-H23, > 100 µM (inactive); with NCI-H460, 10.3 µM (inactive). The GI50 in the assay with NCI/ADR-RES is > 100 µM (inactive); in the assay on SK-OV-3 it was > 100 µM (inactive); with SNB-19, > 100 µM (inactive); in the assay with SNB-75, 28.2 µM (inactive); in the assay on T47D it was 49.4 µM (inactive); in the assay with TK-10 it was 40.3 µM (inactive). In addition, in the assay with UO-31, the GI50 is > 100 µM (inactive).
As to `O=C(Cc1ccccc1)NNc1nc(NNC(=O)c2ccncc2)nc(Nc2cccc(Cl)c2)n1`, the GI50 with 786-0, with BT-549, in the assay with CCRF-CEM, in the assay with COLO 205, with DU-145 and with EKVX was > 10 µM (inactive) in each case. The GI50 with HL-60, in the assay on Hs-578T, in the assay with K562, with Malme-3M, in the assay on NCI-H23 and in the assay on NCI-H460 was > 10 µM (inactive) each time. For the same molecule, the GI50 in the assay on NCI/ADR-RES, in the assay with SK-OV-3, in the assay on SNB-75, with T47D and in the assay on TK-10 was > 10 µM (inactive) each time.
`O=[N+]([O-])c1ccc(CSC2=C(c3ccc(Cl)cc3)S/C(=C3\SC(SCc4ccc([N+](=O)[O-])cc4)=C(c4ccc(Cl)cc4)S3)S2)cc1`: the GI50 with 786-0, in the assay with BT-549, in the assay with CCRF-CEM, in the assay on COLO 205, in the assay on DU-145 and in the assay with EKVX was > 100 µM (inactive) throughout. Besides, the GI50 with Hs-578T, in the assay with K562, in the assay with Malme-3M, in the assay with NCI-H226, in the assay on NCI-H23 and in the assay with NCI-H460 was > 100 µM (inactive) each time. For the same molecule, the GI50 in the assay on NCI/ADR-RES, with SK-OV-3, with SNB-19, in the assay on T47D and with TK-10 was > 100 µM (inactive) in each case.
`CC(Oc1ccccc1Cl)C(=O)NN1C(=O)CC(=O)NC1=S` (stereo not given): the GI50 in the assay on 786-0 is > 100 µM (inactive); in the assay with BT-549, > 100 µM (inactive); in the assay with COLO 205, > 100 µM (inactive); in the assay with DU-145, > 100 µM (inactive); in the assay on EKVX, > 100 µM (inactive); in the assay on HL-60, 9.23 µM (inactive). Also, the GI50 in the assay with Hs-578T was > 100 µM (inactive); in the assay on K562, 9.53 µM (inactive); in the assay with Malme-3M, > 100 µM (inactive); in the assay on NCI-H226, > 100 µM (inactive); in the assay with NCI-H23, > 100 µM (inactive); in the assay on NCI-H460, > 100 µM (inactive). Moreover, the GI50 with NCI/ADR-RES was > 100 µM (inactive); in the assay on SK-OV-3, > 100 µM (inactive); in the assay on SNB-19, > 100 µM (inactive); with SNB-75, > 100 µM (inactive); with T47D it was 36.6 µM (inactive); in the assay on TK-10 it was > 100 µM (inactive). In the assay on UO-31, the GI50 was 92.5 µM (inactive).
As to `COC1OC2COC1(OCc1ccccc1)C1OC(C)(C)OC21` (stereo not given), the GI50 in the assay with 786-0, with BT-549, with CCRF-CEM, with COLO 205, in the assay on DU-145 and in the assay with EKVX was > 100 µM (inactive) in each case. For the same molecule, the GI50 in the assay with Hs-578T, with K562, in the assay on Malme-3M, in the assay with NCI-H226, with NCI-H23 and in the assay on NCI-H460 was > 100 µM (inactive) throughout. For the same molecule, the GI50 with NCI/ADR-RES, with SK-OV-3, with SNB-19, in the assay with SNB-75, in the assay with T47D and with TK-10 was > 100 µM (inactive) each time. In addition, the GI50 with UO-31 was > 100 µM (inactive).
In the case of `O=C1C=C(c2ccccc2)O/C1=C\C(=O)c1ccc(Cl)cc1`, the GI50 in the assay on 786-0 was 14.3 µM (inactive); with BT-549 it was 12.5 µM (inactive); in the assay on COLO 205, 16.3 µM (inactive); with DU-145, 43.6 µM (inactive); in the assay with EKVX, > 100 µM (inactive); with HL-60, 2.18 µM (inactive). Moreover, the GI50 was 21.9 µM (inactive) in the assay on Hs-578T; 22.2 µM (inactive) in the assay with K562; 13.6 µM (inactive) with Malme-3M; 17.4 µM (inactive) with NCI-H226; 25.5 µM (inactive) in the assay on NCI-H23; > 100 µM (inactive) with NCI-H460. The GI50 was 23.2 µM (inactive) with NCI/ADR-RES; 98.4 µM (inactive) in the assay with SK-OV-3; > 100 µM (inactive) with SNB-19; 4.84 µM (inactive) in the assay with SNB-75; 23.3 µM (inactive) in the assay on T47D; 20.1 µM (inactive) in the assay on TK-10. In addition, the GI50 in the assay on UO-31 was 20.7 µM (inactive).
With `CCCCCCCCCCCCCOCCOCCOCCCCC(O)CCCCCCCCCC1=C[C@H](C)OC1=O` (stereo not given in full), the GI50 in the assay on 786-0 is 17.6 µM (inactive); in the assay with BT-549, 11.1 µM (inactive); in the assay with CCRF-CEM, 9.86 µM (inactive); in the assay on COLO 205, 20.9 µM (inactive); with DU-145, 21.7 µM (inactive); in the assay with HL-60 it was 0.356 µM (active). In addition, the GI50 in the assay on Hs-578T is 14.9 µM (inactive); in the assay on K562, 21.2 µM (inactive); in the assay on NCI-H226 it was 12.8 µM (inactive); in the assay on NCI-H23, 13.7 µM (inactive); in the assay with NCI-H460, 17.5 µM (inactive); in the assay with NCI/ADR-RES, 10 µM (inactive). The GI50 in the assay with SK-OV-3 is 31.8 µM (inactive); in the assay with SNB-19, 20.7 µM (inactive); in the assay with SNB-75, 21.1 µM (inactive); in the assay on T47D it was 16.3 µM (inactive); in the assay on TK-10, 2.94 µM (inactive); with UO-31, 16 µM (inactive).
As to `C[C@H](NC1=CC(=O)C(N[C@@H](C)[C@H](O)c2ccccc2)=CC1=O)[C@H](O)c1ccccc1`, the GI50 in the assay with 786-0 is > 100 µM (inactive); in the assay with BT-549, 52.8 µM (inactive); with CCRF-CEM, 57.8 µM (inactive); in the assay on COLO 205, 68.5 µM (inactive); in the assay with DU-145, > 100 µM (inactive); in the assay on EKVX it was > 100 µM (inactive). The GI50 with HL-60 was > 100 µM (inactive); with Hs-578T it was 37.2 µM (inactive); in the assay on K562 it was > 100 µM (inactive); in the assay on Malme-3M, 67.6 µM (inactive); in the assay on NCI-H226 it was 62.1 µM (inactive); with NCI-H23, 67 µM (inactive). For the same molecule, the GI50 in the assay on NCI-H460 was 63.8 µM (inactive); with NCI/ADR-RES, 92.7 µM (inactive); in the assay on SK-OV-3, 69 µM (inactive); in the assay on SNB-19 it was > 100 µM (inactive); with T47D, 53.1 µM (inactive); in the assay on TK-10 it was 55.7 µM (inactive). Further, the GI50 in the assay with UO-31 was 64 µM (inactive).
For the molecule `NS(=O)(=O)c1nnc(NS(=O)(=O)c2ccc(Cl)cc2)s1`, the GI50 in the assay on 786-0, in the assay on BT-549, with COLO 205, in the assay on DU-145, in the assay with EKVX and in the assay on Hs-578T was > 100 µM (inactive) in each case. Further, the GI50 in the assay with K562, in the assay on Malme-3M, with NCI-H226, in the assay on NCI-H23, in the assay with NCI-H460 and with NCI/ADR-RES was > 100 µM (inactive) in each case. Besides, the GI50 in the assay with SK-OV-3, in the assay on SNB-19, with T47D, in the assay on TK-10 and in the assay with UO-31 was > 100 µM (inactive) throughout.
As to `COc1ccc(/C=N/N2C(=O)c3c(N)c(C#N)c(-c4ccccc4)c(-c4ccccc4)c3C2=O)cc1`, the GI50 is 64.6 µM (inactive) in the assay with 786-0; > 100 µM (inactive) in the assay on BT-549; > 100 µM (inactive) with CCRF-CEM; > 100 µM (inactive) with COLO 205; > 100 µM (inactive) in the assay with DU-145; > 100 µM (inactive) with EKVX. Besides, the GI50 with HL-60, in the assay on Hs-578T, with K562, in the assay on Malme-3M, in the assay on NCI-H226 and in the assay on NCI-H460 was > 100 µM (inactive) throughout. Also, the GI50 was > 100 µM (inactive) in the assay on NCI/ADR-RES; 76.9 µM (inactive) in the assay on SNB-19; 88.7 µM (inactive) with SNB-75; > 100 µM (inactive) in the assay with T47D; 42.4 µM (inactive) with TK-10; > 100 µM (inactive) in the assay with UO-31.
